Consider nine compounds from the RepoRT retention time repository (doi:10.1016/j.foodchem.2021.129757).

A short description of one series: RP, Waters Atlantis T3, 100 × 2.1 mm, 3 µm, 40 °C, 0.3 mL/min, estimated dead time 0.73 min; A: water + 0.1% trifluoroacetic acid, pH 2; B: acetonitrile + 0.1% trifluoroacetic acid, pH 2; gradient (min/%B) 0/10 1/10 6/40 7/50 8/50 14/70 16/80 20/10 25/10. Particulars: stereoisomer not certain.
Take `O=C(O)c1cc(O)c(O)c(O)c1` [Gallic acid]: the LC retention time was 1.56 min.

A further series in a line: RP, Agilent InfinityLab Poroshell 120 EC-C18, 100 × 3 mm, 2.7 µm, 25 °C, 0.4 mL/min, estimated dead time 1.1 min; A: water + 0.1% formic acid, pH 3; B: acetonitrile + 0.1% formic acid, pH 3; gradient (min/%B) 0/5 10/25 20/40 24/90 25/90 26/5 30/5. Particulars: stereoisomer not certain.
`Cn1cnc2c1c(=O)[nH]c(=O)n2C` [Theobromine]: the LC retention time was 3.25 min.
For the compound `COc1ccc(C(=O)O)cc1OC` [Veratric acid], the LC retention time is 9.51 min.
On the same count and under the same terms, the figure for `Oc1cc(O)c2c(c1)OC1(c3ccc(O)c(O)c3)Oc3cc(O)c4c(c3C2C1O)OC(c1ccc(O)c(O)c1)C(O)C4` (stereo not drawn) [Procyanidin A2] is 9.7 min; for `O=S(=O)(O)Oc1c(O)cccc1O` [Pyrogallol 2-O-sulfate] it is 3.99 min.
As to `COc1cc(C=CC(=O)CC(=O)C=Cc2ccc(O)c(OC)c2)ccc1O` [Curcumin], the LC retention time is 22.9 min.
Take `O=c1oc2cc(O)ccc2c2ccccc12` [Urolithin B]: the LC retention time was 18.8 min.
Regarding `O=C(O)c1cc(O)c(O)c(O)c1` [Gallic acid], the LC retention time was 2.36 min.

A short description of the next series: RP, Phenomenex Kinetex EVO C18, 100 × 2.1 mm, 2.6 µm, 40 °C, 0.4 mL/min, estimated dead time 0.55 min; A: water + 0.2% formic acid; B: acetonitrile + 0.2% formic acid; gradient (min/%B) 0/5 0.5/5 7/95 8/95 8.5/5 12/5. Particulars: stereoisomer not certain.
On to `O=C(O)c1cc(O)c(O)c(O)c1` [Gallic acid], for which the LC retention time was 0.96 min.

A further series can be described thus: Other, Phenomenex Kinetex PFP, 100 × 4.6 mm, 5 µm, 45 °C, 0.6 mL/min, estimated dead time 1.8 min; A: water + 0.1% trifluoroacetic acid, pH 2; B: methanol; gradient (min/%B) 0/40 20/72 21/40. Conditions: stereoisomer not certain.
For the compound `O=C(O)c1cc(O)c(O)c(O)c1` [Gallic acid], the LC retention time was 3 min.

The next series in a line: RP, Merck LiChrospher RP-18, 250 × 4 mm, 5 µm, 35 °C, 0.3 mL/min, estimated dead time 6.7 min; A: water + 0.5% formic acid; B: acetonitrile + 0.5% formic acid; gradient (min/%B) 0/5 10/5 30/15 45/20 65/20 95/54 110/63 115/5 135/5. Conditions: stereoisomer not certain.
As for `O=C(O)c1cc(O)c(O)c(O)c1` [Gallic acid], the LC retention time is 16.5 min.

The next series can be described thus: RP, Phenomenex Luna Omega Polar C18, 100 × 2.1 mm, 1.6 µm, 40 °C, 0.5 mL/min, estimated dead time 0.44 min; A: water + 0.1% formic acid + 10 mM ammonium formate; B: acetonitrile; gradient (min/%B) 0/5 8/20 10/100 12/100 12.1/5 14/5. Particulars: stereoisomer not certain.
As for `COc1ccc(C(=O)O)cc1OC` [Veratric acid], the LC retention time is 6.87 min.
On the same count and under the same terms, for `Oc1cc(O)c2c(c1)OC1(c3ccc(O)c(O)c3)Oc3cc(O)c4c(c3C2C1O)OC(c1ccc(O)c(O)c1)C(O)C4` (stereo not drawn) [Procyanidin A2] the value was 8.12 min.
On the same count and under the same terms, the figure for `O=S(=O)(O)Oc1c(O)cccc1O` [Pyrogallol 2-O-sulfate] is 1.61 min; for `COc1cc(C=CC(=O)CC(=O)C=Cc2ccc(O)c(OC)c2)ccc1O` [Curcumin] it is 10.1 min.
Still for that read-out and setting: for `O=c1oc2cc(O)ccc2c2ccccc12` [Urolithin B] the value was 9.78 min; for `O=C(O)c1cc(O)c(O)c(O)c1` [Gallic acid], 1.22 min.

A further series in a line: RP, Phenomenex Synergi Hydro-RP, 250 × 2 mm, 4 µm, 25 °C, 0.2 mL/min, estimated dead time 2.5 min; A: water + 0.1% formic acid, pH 3; B: acetonitrile + 0.1% formic acid, pH 3; gradient (min/%B) 0/0.5 7/0.5 12/12.5 25/16.3 47/35 48/65 50/65 50.1/0.5. Conditions: stereoisomer not certain.
As to `COc1ccc(C(=O)O)cc1OC` [Veratric acid], the LC retention time was 33 min.
Same read-out and setting: for `O=C(O)c1cc(O)c(O)c(O)c1` [Gallic acid] the value was 13.9 min.

Another series in a line: RP, 50 × 0.5 mm, 2.7 µm, 35 °C, 0.01 mL/min, estimated dead time 0.62 min; A: water + 0.1% formic acid, pH 3; B: acetonitrile + 0.1% formic acid, pH 3; gradient (min/%B) 0/5 12/95 14/95 16/5. Particulars: stereoisomer not certain.
Turning to `Cn1cnc2c1c(=O)[nH]c(=O)n2C` [Theobromine], the LC retention time is 1.77 min.
`COc1ccc(C(=O)O)cc1OC` [Veratric acid]: the LC retention time was 4.19 min.
Same read-out and setting: for `Oc1cc(O)c2c(c1)OC1(c3ccc(O)c(O)c3)Oc3cc(O)c4c(c3C2C1O)OC(c1ccc(O)c(O)c1)C(O)C4` (stereo not drawn) [Procyanidin A2] the value was 4.38 min; for `CC12CCc3occc3C1CCC13CC(CCC12)C(O)(CO)C3` (stereo not drawn) [Cafestol], 8.2 min; for `O=S(=O)(O)Oc1c(O)cccc1O` [Pyrogallol 2-O-sulfate], 1.4 min.
The same measure, in the same setting: the figure for `COc1cc(C=CC(=O)CC(=O)C=Cc2ccc(O)c(OC)c2)ccc1O` [Curcumin] is 7.99 min.
Regarding `O=c1oc2cc(O)ccc2c2ccccc12` [Urolithin B], the LC retention time was 6.54 min.
In the case of `C[n+]1cccc(C(=O)[O-])c1` [Trigonelline], the LC retention time was 0.771 min.
The same measure, in the same setting: for `O=C(O)c1cc(O)c(O)c(O)c1` [Gallic acid] the value was 1.44 min.

The next series is described as follows: RP, Phenomenex Synergi Hydro-RP, 150 × 2 mm, 4 µm, 30 °C, 0.5 mL/min, estimated dead time 0.6 min; A: water + 0.1% formic acid, pH 3; B: acetonitrile + 0.1% formic acid, pH 3; gradient (min/%B) 0/5 1/5 35/45 40/100 45/100. Particulars: stereoisomer not certain.
For the compound `Oc1cc(O)c2c(c1)OC1(c3ccc(O)c(O)c3)Oc3cc(O)c4c(c3C2C1O)OC(c1ccc(O)c(O)c1)C(O)C4` (stereo not drawn) [Procyanidin A2], the LC retention time was 16 min.
As to `CC12CCc3occc3C1CCC13CC(CCC12)C(O)(CO)C3` (stereo not drawn) [Cafestol], the LC retention time was 37.9 min.
Still for that read-out and setting: the figure for `COc1cc(C=CC(=O)CC(=O)C=Cc2ccc(O)c(OC)c2)ccc1O` [Curcumin] is 37.7 min.

The nature of another series: RP, Waters ACQUITY UPLC BEH C18, 100 × 2.1 mm, 1.7 µm, 65 °C, 0.4 mL/min, estimated dead time 0.55 min; A: water + 0.1% formic acid, pH 3; B: 80% acetonitrile + 20% acetone + 0.1% formic acid, pH 3; gradient (min/%B) 0/0 5/100 5.5/0 6/0. Conditions: stereoisomer not certain.
`Cn1cnc2c1c(=O)[nH]c(=O)n2C` [Theobromine]: the LC retention time was 1.39 min.
As for `CC12CCc3occc3C1CCC13CC(CCC12)C(O)(CO)C3` (stereo not drawn) [Cafestol], the LC retention time was 3.19 min.
Still for that read-out and setting: for `O=C(O)c1cc(O)c(O)c(O)c1` [Gallic acid] the value was 1.5 min.

A further series in a line: RP, Waters ACQUITY UPLC BEH Shield RP18, 100 × 2.1 mm, 1.7 µm, 30 °C, 0.6 mL/min, estimated dead time 0.37 min; A: water + 0.1% formic acid, pH 3; B: acetonitrile + 0.1% formic acid, pH 3; gradient (min/%B) 0/0 2/0 7/10 22/95 22.1/0 26/0. Particulars: stereoisomer not certain.
With `Cn1cnc2c1c(=O)[nH]c(=O)n2C` [Theobromine], the LC retention time was 4.4 min.
Turning to `COc1ccc(C(=O)O)cc1OC` [Veratric acid], the LC retention time was 12 min.
Same read-out and setting: for `Oc1cc(O)c2c(c1)OC1(c3ccc(O)c(O)c3)Oc3cc(O)c4c(c3C2C1O)OC(c1ccc(O)c(O)c1)C(O)C4` (stereo not drawn) [Procyanidin A2] the value was 13.1 min; for `CC12CCc3occc3C1CCC13CC(CCC12)C(O)(CO)C3` (stereo not drawn) [Cafestol], 17.5 min.
Same read-out and setting: the figure for `COc1cc(C=CC(=O)CC(=O)C=Cc2ccc(O)c(OC)c2)ccc1O` [Curcumin] is 18.2 min; for `O=c1oc2cc(O)ccc2c2ccccc12` [Urolithin B] it is 16 min.
On the same count and under the same terms, the figure for `C[n+]1cccc(C(=O)[O-])c1` [Trigonelline] is 0.62 min.
For the compound `O=C(O)c1cc(O)c(O)c(O)c1` [Gallic acid], the LC retention time was 2.69 min.

A further series in a line: RP, Waters ACQUITY UPLC HSS T3, 100 × 2.1 mm, 1.8 µm, 30 °C, 0.4 mL/min, estimated dead time 0.55 min; A: water + 0.1% formic acid, pH 3; B: acetonitrile + 0.1% formic acid, pH 3; gradient (min/%B) 0/0 2/0 15/100 22/100 22.1/0 26/0. Particulars: stereoisomer not certain.
Turning to `Cn1cnc2c1c(=O)[nH]c(=O)n2C` [Theobromine], the LC retention time is 7.1 min.
Same read-out and setting: for `COc1ccc(C(=O)O)cc1OC` [Veratric acid] the value was 9.65 min; for `Oc1cc(O)c2c(c1)OC1(c3ccc(O)c(O)c3)Oc3cc(O)c4c(c3C2C1O)OC(c1ccc(O)c(O)c1)C(O)C4` (stereo not drawn) [Procyanidin A2], 9.38 min.
On to `CC12CCc3occc3C1CCC13CC(CCC12)C(O)(CO)C3` (stereo not drawn) [Cafestol], for which the LC retention time was 13.9 min.
Turning to `O=S(=O)(O)Oc1c(O)cccc1O` [Pyrogallol 2-O-sulfate], the LC retention time was 6.13 min.
Still for that read-out and setting: the figure for `COc1cc(C=CC(=O)CC(=O)C=Cc2ccc(O)c(OC)c2)ccc1O` [Curcumin] is 13.6 min.
